Test systems include HCC 2998; CCRF-CEM; SNB-19; OVCAR-8; UACC-257; MOLT-4; SNB-75; SK-OV-3; U-251; SF-295; OVCAR-3; TK-10; EKVX; UACC-62; OVCAR-4; HOP-92; SF-268; NCI-H23; NCI-H460; SN12C.
Assay in all cases: growth of human tumour cells (NCI), 48 h

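Protocol summary: plate cells (96-well), add compound at 5 concentrations, incubate 48 h, interpolate endpoints linearly. At the GI50, growth is halved.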 The source made the active and inactive calls. Cut-off read from the data, not from the text of the source: active = GI50 up to about 1.1 µM and inactive = higher.

On to `Cc1ccc2c(c1)C(=O)N(N(C)C)CC(=O)N2`, for which the GI50 with HCC 2998, with CCRF-CEM, with SNB-19, in the assay on OVCAR-8, with UACC-257 and in the assay on MOLT-4 was > 100 µM (inactive) in each case. Also, the GI50 in the assay with SNB-75 was 35.2 µM (inactive); in the assay with SK-OV-3, > 100 µM (inactive); in the assay on U-251 it was > 100 µM (inactive); in the assay with SF-295, > 100 µM (inactive); in the assay on OVCAR-3, > 100 µM (inactive); in the assay with TK-10, > 100 µM (inactive). Further, the GI50 in the assay on EKVX, with UACC-62, in the assay with OVCAR-4, with HOP-92, in the assay on SF-268 and with NCI-H23 was > 100 µM (inactive) in each case. Moreover, the GI50 in the assay on NCI-H460 was > 100 µM (inactive).
Regarding `CN(C)CCCNC(=O)N/N=C/c1ccccn1`, the GI50 was > 10 µM (inactive) with HCC 2998; > 10 µM (inactive) in the assay with CCRF-CEM; > 10 µM (inactive) with OVCAR-8; 9.42 µM (inactive) in the assay with UACC-257; > 10 µM (inactive) in the assay with MOLT-4; > 10 µM (inactive) with SNB-75. In addition, the GI50 in the assay on SK-OV-3, with SF-295, in the assay on TK-10, with EKVX, with UACC-62 and in the assay with SN12C was > 10 µM (inactive) in each case. Further, the GI50 in the assay on OVCAR-4, with HOP-92, in the assay on SF-268 and in the assay on NCI-H460 was > 10 µM (inactive) each time.
Take `c1ccc2c(c1)SP1Sc3ccccc3P21` (centres undefined): the GI50 in the assay with HCC 2998 is 90.6 µM (inactive); in the assay with CCRF-CEM, > 87.1 µM (inactive); in the assay on SNB-19, > 28.2 µM (inactive); in the assay with OVCAR-8 it was > 89.3 µM (inactive); in the assay on UACC-257 it was > 100 µM (inactive); in the assay with MOLT-4, > 100 µM (inactive). In addition, the GI50 was 61.9 µM (inactive) with SNB-75; > 100 µM (inactive) with SK-OV-3; > 100 µM (inactive) in the assay on U-251; > 100 µM (inactive) with SF-295; > 100 µM (inactive) with OVCAR-3; > 100 µM (inactive) in the assay with EKVX. The GI50 in the assay with UACC-62 is > 85.1 µM (inactive); with SN12C, 63.4 µM (inactive); with OVCAR-4, 72.3 µM (inactive); with HOP-92, > 100 µM (inactive); with SF-268, > 95.3 µM (inactive); with NCI-H23, > 100 µM (inactive). Moreover, the GI50 in the assay on NCI-H460 is > 100 µM (inactive).
On to `[O-][n+]1c2c([n+]([O-])c3ccccc31)-c1cccc3cccc-2c13`, for which the GI50 with HCC 2998, in the assay on CCRF-CEM, in the assay with SNB-19, in the assay on OVCAR-8, with UACC-257 and in the assay with MOLT-4 was > 100 µM (inactive) throughout. The GI50 with SNB-75 is 18.4 µM (inactive); in the assay on U-251 it was 43 µM (inactive); in the assay with SF-295 it was 34.3 µM (inactive); in the assay with OVCAR-3 it was > 100 µM (inactive); in the assay on TK-10, > 100 µM (inactive); in the assay on SN12C, > 100 µM (inactive). The GI50 in the assay on OVCAR-4 is > 100 µM (inactive); in the assay on HOP-92, 81.3 µM (inactive); in the assay with SF-268, 29 µM (inactive); with NCI-H23, 47.3 µM (inactive); with NCI-H460 it was 91.2 µM (inactive).
Regarding `COc1cc2c(cc1OC)CCN=C2`, the GI50 in the assay with HCC 2998, in the assay with CCRF-CEM, in the assay on SNB-19, with OVCAR-8, in the assay with UACC-257 and in the assay on MOLT-4 was > 100 µM (inactive) in each case. Moreover, the GI50 with SNB-75, in the assay on SK-OV-3, in the assay on U-251, with SF-295, in the assay on OVCAR-3 and in the assay with TK-10 was > 100 µM (inactive) in each case. For the same compound, the GI50 in the assay with UACC-62 was > 100 µM (inactive); in the assay on SN12C, > 100 µM (inactive); with OVCAR-4, > 100 µM (inactive); with HOP-92, > 100 µM (inactive); in the assay on NCI-H23, > 100 µM (inactive); with NCI-H460, 66.5 µM (inactive).
`COC1CCC(O)C(CO)O1` (centres undefined): the GI50 in the assay with HCC 2998 was > 100 µM (inactive); in the assay with CCRF-CEM, 10.9 µM (inactive); with OVCAR-8, > 100 µM (inactive); in the assay on UACC-257, 37.4 µM (inactive); in the assay on MOLT-4, 27.6 µM (inactive); with SNB-75, > 100 µM (inactive). Further, the GI50 is > 100 µM (inactive) in the assay on SK-OV-3; > 10 µM (inactive) with U-251; > 100 µM (inactive) in the assay on SF-295; 41.4 µM (inactive) with OVCAR-3; > 100 µM (inactive) in the assay on TK-10; > 100 µM (inactive) in the assay with EKVX. For the same compound, the GI50 in the assay on UACC-62, in the assay with SN12C, in the assay with OVCAR-4, in the assay with HOP-92, with NCI-H23 and in the assay with NCI-H460 was > 100 µM (inactive) each time.
On to `CN(C)C(=O)OCOC(=O)N(C)C`, for which the GI50 in the assay on HCC 2998 is > 91.8 µM (inactive); in the assay on CCRF-CEM, > 100 µM (inactive); in the assay on SNB-19 it was > 100 µM (inactive); with OVCAR-8 it was > 100 µM (inactive); in the assay on MOLT-4, > 100 µM (inactive); in the assay with SNB-75, > 82.8 µM (inactive). For the same compound, the GI50 with SK-OV-3, with U-251, with SF-295, with OVCAR-3, with EKVX and in the assay with UACC-62 was > 100 µM (inactive) throughout. The GI50 was > 100 µM (inactive) in the assay with SN12C; > 100 µM (inactive) in the assay on OVCAR-4; > 92.5 µM (inactive) in the assay on HOP-92; > 100 µM (inactive) in the assay with SF-268; > 100 µM (inactive) with NCI-H23; > 100 µM (inactive) in the assay with NCI-H460.
As to `O=C(O)C12CCCC(CCC1)C2`, the GI50 with CCRF-CEM, in the assay with SNB-19, with OVCAR-8, with UACC-257, in the assay on MOLT-4 and in the assay with SNB-75 was > 100 µM (inactive) each time. The GI50 with SK-OV-3, in the assay on U-251, in the assay with SF-295, in the assay on OVCAR-3, in the assay on TK-10 and in the assay with EKVX was > 100 µM (inactive) in each case. In addition, the GI50 with UACC-62, with SN12C, in the assay on OVCAR-4, in the assay on HOP-92, in the assay on SF-268 and with NCI-H23 was > 100 µM (inactive) each time. Also, the GI50 in the assay on NCI-H460 was > 100 µM (inactive).
In the case of `CC(NNC(=O)c1cc[n+]([BH2-]C#N)cc1)c1ccccc1F` (centres undefined), the GI50 with HCC 2998, in the assay on CCRF-CEM, with SNB-19, in the assay with OVCAR-8, in the assay with UACC-257 and with MOLT-4 was > 100 µM (inactive) each time. In addition, the GI50 with SNB-75, in the assay with U-251, in the assay on SF-295, in the assay with OVCAR-3, in the assay on TK-10 and in the assay on EKVX was > 100 µM (inactive) throughout. Moreover, the GI50 in the assay with UACC-62, with SN12C, in the assay with OVCAR-4, in the assay on HOP-92, in the assay with SF-268 and with NCI-H460 was > 100 µM (inactive) throughout.
On to `COc1cc(C2c3cc4c(cc3[C@@H](Nc3ccc5c(c3)OCO5)C3COC(=O)[C@H]23)OCO4)cc(OC)c1O` (some centres undefined), for which the GI50 with HCC 2998 was 1.42 µM (inactive); with CCRF-CEM, 0.0641 µM (active); with SNB-19 it was 0.299 µM (active); in the assay on OVCAR-8 it was 1.38 µM (inactive); in the assay on UACC-257, 0.507 µM (active); with MOLT-4, < 0.0136 µM (active). Moreover, the GI50 in the assay on SNB-75 was 0.991 µM (active); in the assay on SK-OV-3, 1.25 µM (inactive); in the assay on U-251, 0.185 µM (active); with SF-295 it was 0.213 µM (active); with OVCAR-3, 2.9 µM (inactive); in the assay with EKVX, 2.45 µM (inactive). Further, the GI50 in the assay on UACC-62 was 0.322 µM (active); in the assay on SN12C, 0.643 µM (active); with HOP-92, 0.424 µM (active); with SF-268, 0.953 µM (active); in the assay with NCI-H23, 0.303 µM (active); in the assay with NCI-H460, < 0.01 µM (active).
Consider `Cc1cc(-c2nc3cccc(O)c3s2)ccc1N`, for which the GI50 in the assay with HCC 2998 is 45.3 µM (inactive); in the assay on CCRF-CEM, 25.8 µM (inactive); in the assay on SNB-19, < 0.01 µM (active); in the assay on OVCAR-8, 24.2 µM (inactive); with UACC-257, 37.2 µM (inactive); in the assay on MOLT-4 it was 28.2 µM (inactive). The GI50 was > 100 µM (inactive) with SNB-75; 52.8 µM (inactive) in the assay on SK-OV-3; 41.1 µM (inactive) with U-251; 28.8 µM (inactive) in the assay with SF-295; 44.4 µM (inactive) with OVCAR-3; 33.6 µM (inactive) with TK-10. Besides, the GI50 with EKVX is 15.7 µM (inactive); with UACC-62, 16.3 µM (inactive); with SN12C it was 39.9 µM (inactive); in the assay with HOP-92 it was 43.8 µM (inactive); in the assay on SF-268 it was 17.6 µM (inactive); in the assay on NCI-H23, 24.6 µM (inactive). Moreover, the GI50 in the assay with NCI-H460 is 29.1 µM (inactive).
